In brackets after ≈: the same amount, converted by molar mass. Where two headings read alike, the source gives them in different places. Marks after values point to notes of the source that are not given here.
What was measured:
[1] = target: T1, Proteinase K (Parengyodontium album, UniProt P06873); test: Protease panel: Proteinase K; format: biochemical
T1 construct: Reaction Biology Corporation (contract testing)
Description: (§3) Protease panel testing was carried out by Reaction Biology Corporation.

[2] = Mouse liver microsome stability; format: in vitro ADME; details: liver microsomes, read-out: MLM t1/2
Description: (§1) A parallel artificial-membrane permeability assay (PAMPA) and mouse liver microsome (MLM), human liver microsome (HLM), aqueous solubility, Log D, protein binding, and cytochrome P450 2D6 and 3A4 assays were carried out at Piramal Pharma Solutions.

[3] = target: Kallikrein 1 (Homo sapiens, UniProt P06870); test: Protease panel: Kallikrein 1; format: biochemical; details: Table 6; 10-dose response, top 10 μM
Kallikrein 1, sequence (P06870 25-262, species assumed): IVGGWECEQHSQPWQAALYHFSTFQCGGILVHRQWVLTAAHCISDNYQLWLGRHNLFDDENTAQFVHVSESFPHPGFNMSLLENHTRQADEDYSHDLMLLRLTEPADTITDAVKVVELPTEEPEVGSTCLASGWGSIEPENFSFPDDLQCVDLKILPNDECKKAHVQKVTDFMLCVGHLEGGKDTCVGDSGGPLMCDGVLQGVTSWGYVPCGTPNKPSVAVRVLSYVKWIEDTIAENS
Description: as §3

[4] = test system: M. tuberculosis H37Rv; test: microbe, parasite or virus in culture; format: cell-based
[5] = Plasma protein binding, mouse; format: in vitro ADME; details: bound, read-out: Plasma protein binding in mice (%) (converted)
Description: as §1

[6] = test system: M. tuberculosis; test: Bactericidal activity (MBC99.9); format: cell-based; details: Mycobacterium tuberculosis; concentration required to kill 99.9% of the bacterial population
[7] = test system: Vero cells; test: MTS cytotoxicity assay, Vero; format: cell-based; details: fold higher
Description: (§2) The MTS (Promega) reduction assay was used according to manufacturer's guidelines to assess Vero (ATCC […]) and HepG2 (ATCC HB-8065) cell viability. […] Carbonyl cyanide m-chlorophenylhydrazone (CCCP) was used as a cytotoxic positive control. Cytotoxicity was determined twice in independent experiments.

[8] = MTS cytotoxicity assay, Vero; format: cell-based; details: African green monkey; MTS assay; read-out: GI50, Vero cells
Description: as §2

[9] = test system: Mycobacterium bovis BCG; test: microbe, parasite or virus in culture; format: cell-based; details: Mycobacterium tuberculosis variant bovis BCG, read-out: MIC50 for Mycobacterium bovis BCG
[10] = Log D (octanol/PBS); format: physicochemical; details: pH 7.4, read-out: Log D (measured at pH 7.4)
Description: as §1

[11] = target: ClpP1P2 (Mycolicibacterium smegmatis, UniProt A0R197+A0R198); test: ClpP1P2 inhibition whole-cell RFP-SsrA reporter assay
ClpP1P2, sequence (A0R198 4-203): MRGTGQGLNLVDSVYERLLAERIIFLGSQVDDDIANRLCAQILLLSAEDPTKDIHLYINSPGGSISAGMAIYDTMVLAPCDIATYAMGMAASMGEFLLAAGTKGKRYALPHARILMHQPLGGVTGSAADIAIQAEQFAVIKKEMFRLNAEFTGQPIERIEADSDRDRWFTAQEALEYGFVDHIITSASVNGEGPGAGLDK
ClpP1P2, sequence (A0R197 17-218): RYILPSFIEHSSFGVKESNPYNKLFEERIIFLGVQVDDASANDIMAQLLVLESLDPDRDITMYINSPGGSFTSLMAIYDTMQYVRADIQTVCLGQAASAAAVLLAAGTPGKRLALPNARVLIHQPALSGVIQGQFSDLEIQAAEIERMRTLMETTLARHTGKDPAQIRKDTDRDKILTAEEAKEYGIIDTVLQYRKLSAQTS

[12] = test system: M. smegmatis ΔprcAB; format: cell-based
[13] = Plasma protein binding, human; format: in vitro ADME; details: bound, read-out: Plasma protein binding in humans (%) (converted)
Description: as §1

[14] = target: Kallikrein 7 (Homo sapiens, UniProt P49862); test: Protease panel: Kallikrein 7; format: biochemical; details: Table 6; 10-dose response, top 10 μM
Kallikrein 7, sequence (P49862 30-253, species assumed): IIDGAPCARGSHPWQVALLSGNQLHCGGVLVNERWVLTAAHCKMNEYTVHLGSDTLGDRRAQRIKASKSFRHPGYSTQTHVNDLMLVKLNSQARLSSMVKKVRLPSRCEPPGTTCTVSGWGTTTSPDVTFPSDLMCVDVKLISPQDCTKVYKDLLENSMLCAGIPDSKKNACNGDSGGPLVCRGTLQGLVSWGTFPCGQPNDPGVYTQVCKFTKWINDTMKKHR
Description: as §3

[15] = target: T2, Plasma kallikrein (Homo sapiens, UniProt P03952); test: Protease panel: Plasma kallikrein; format: biochemical; details: Table 6; 10-dose response, top 10 μM
T2 construct: Reaction Biology Corporation (contract testing)
T2 sequence (P03952 20-638, species assumed): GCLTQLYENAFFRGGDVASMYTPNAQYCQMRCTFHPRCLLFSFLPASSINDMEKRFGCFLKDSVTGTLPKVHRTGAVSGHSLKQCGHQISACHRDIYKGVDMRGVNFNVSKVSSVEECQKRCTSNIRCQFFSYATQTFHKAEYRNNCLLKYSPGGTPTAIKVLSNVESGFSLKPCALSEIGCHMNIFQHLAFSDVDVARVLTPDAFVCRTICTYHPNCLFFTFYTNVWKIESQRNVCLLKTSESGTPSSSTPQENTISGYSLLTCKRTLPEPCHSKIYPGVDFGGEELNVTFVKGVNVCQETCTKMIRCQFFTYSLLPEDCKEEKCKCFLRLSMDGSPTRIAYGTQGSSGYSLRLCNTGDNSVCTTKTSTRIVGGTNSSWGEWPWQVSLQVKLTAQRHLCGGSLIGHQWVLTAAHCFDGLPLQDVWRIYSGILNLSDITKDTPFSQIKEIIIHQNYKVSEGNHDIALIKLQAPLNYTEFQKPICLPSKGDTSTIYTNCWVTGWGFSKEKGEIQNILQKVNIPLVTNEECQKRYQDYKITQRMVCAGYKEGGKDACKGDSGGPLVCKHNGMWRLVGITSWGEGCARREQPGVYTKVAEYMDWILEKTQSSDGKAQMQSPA
Description: as §3

[16] = target: T3, CYP450 3A4 (Homo sapiens, UniProt P08684); test: Recombinant cytochrome P450 enzyme assay, 3A4; format: in vitro ADME; details: highest concentration tested 10 μM
T3 construct: Piramal Pharma Solutions (contract laboratory)
T3 sequence (P08684 whole entry): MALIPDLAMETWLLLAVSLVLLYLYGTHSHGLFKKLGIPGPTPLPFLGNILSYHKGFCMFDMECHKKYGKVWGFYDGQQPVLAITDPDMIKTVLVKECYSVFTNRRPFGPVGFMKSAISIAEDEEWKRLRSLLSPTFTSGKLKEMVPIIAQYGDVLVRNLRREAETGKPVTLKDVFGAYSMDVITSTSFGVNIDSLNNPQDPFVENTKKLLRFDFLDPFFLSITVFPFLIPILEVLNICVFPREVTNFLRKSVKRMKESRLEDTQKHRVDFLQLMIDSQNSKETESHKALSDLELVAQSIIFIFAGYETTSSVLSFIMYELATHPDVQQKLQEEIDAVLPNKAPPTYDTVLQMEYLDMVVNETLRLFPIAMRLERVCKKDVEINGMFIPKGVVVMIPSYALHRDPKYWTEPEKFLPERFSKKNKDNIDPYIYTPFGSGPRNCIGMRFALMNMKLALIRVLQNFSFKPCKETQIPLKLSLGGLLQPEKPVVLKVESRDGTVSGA
Description: as §1

[17] = Intravenous/oral pharmacokinetics and tissue distribution in mice; format: in vivo; details: for Vd: 10 mg/kg
Description: Female ICR mice (aged ∼6 to ∼8 weeks; 3 animals per time point) were used for all studies. Studies were performed as per approved internal protocols for animal care and use. Doses were administered as clear solutions in 50% polyethylene glycol 400 (PEG400) plus […] (D5W). Animals were sacrificed by overdose of CO2, and blood was collected through cardiac puncture at 5 min (10 min per os [p.o.]), 30 min, and 1, 2, 4, 8, 16, and 24 h after administration in tubes containing K3 EDTA as an anticoagulant. The samples were centrifuged, and the plasma was separated and stored at −70°C until analysis. Plasma samples were processed and analyzed by LC-tandem MS. Pharmacokinetic parameters were estimated by noncompartmental methods using WinNonlin (version 5.2; Pharsight, CA).

[18] = Thermodynamic aqueous solubility; format: physicochemical; details: thermodynamic from solid
Description: as §1

[19] = test system: panel of 62 proteases; test: Protease selectivity panel, overall; format: biochemical
Description: as §3

[20] = target: HepG2 proteasome (Homo sapiens, UniProt P20618+P28074); test: Cell-based proteasome CT-like peptidase inhibition assay (Proteasome-Glo)
Description: A cell-based CT-like peptidase assay was performed using the Proteasome-Glo cell-based assay reagent (Promega) according to the manufacturer's guidelines. Briefly, HepG2 cells (10^4 cells/well) were treated with the compounds indicated in the figures for 2 h, followed by incubation with the luminescent substrate for 10 min. Luminescence was detected with a Tecan M200 Pro plate reader.

[21] = MTS cytotoxicity assay, HepG2; format: cell-based, human; details: human; MTS assay; read-out: GI50, HepG2 cells
Description: as §2

[22] = test system: HepG2 cells; test: MTS cytotoxicity assay, HepG2; format: cell-based, human; details: fold higher
Description: as §2

[23] = target: Chymase (Homo sapiens, UniProt P23946); test: Protease panel: Chymase; format: biochemical; details: Table 6; 10-dose response, top 10 μM
Chymase, sequence (P23946 22-247, species assumed): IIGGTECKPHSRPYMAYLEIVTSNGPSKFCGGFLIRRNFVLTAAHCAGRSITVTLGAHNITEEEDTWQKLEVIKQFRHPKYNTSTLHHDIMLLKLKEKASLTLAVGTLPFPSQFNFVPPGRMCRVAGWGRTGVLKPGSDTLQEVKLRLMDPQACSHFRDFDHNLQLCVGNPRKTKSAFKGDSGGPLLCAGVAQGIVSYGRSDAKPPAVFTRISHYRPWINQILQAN
Description: as §3

[24] = Parallel artificial-membrane permeability assay (PAMPA); format: in vitro ADME; details: read-out: PAMPA Pe
Description: as §1

T1 sequence (P06873 106-384): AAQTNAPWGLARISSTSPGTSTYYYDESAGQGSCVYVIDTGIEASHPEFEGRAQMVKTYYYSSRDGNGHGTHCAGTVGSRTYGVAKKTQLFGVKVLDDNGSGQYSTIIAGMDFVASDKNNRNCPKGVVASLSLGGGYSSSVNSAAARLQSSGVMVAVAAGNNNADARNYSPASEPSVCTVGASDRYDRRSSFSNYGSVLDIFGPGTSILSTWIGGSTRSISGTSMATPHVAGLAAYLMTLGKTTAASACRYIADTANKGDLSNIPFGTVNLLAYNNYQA

## O=C(N[C@@H](Cc1ccccn1)C(=O)N[C@@H](CCc1ccccc1)B(O)O)c1cnccn1 [Compound 58, ((R)-3-phenyl-1-((S)-2-(pyrazine-2-carboxamido)-3-(pyridin-2-yl)propanamido)propyl)boronic acid]
[1]; Table 6, 10-dose response, top 10 μM
  IC50: 0.35 µM
[1]; supplement panel table, test and control compound
  IC50: 0.352 µM
[2]
  half-life: ~8 min
[3]
  IC50: 6.03 µM
[4]; 5 days
  MIC50 (μM) against M. tuberculosis H37Rv: 2.5 ± 1.3^b μM
  MIC90 (μM) against M. tuberculosis H37Rv: 6 ± 2.8 µM (≈ 2.6 µg/mL)
[4]; H37Rv
  MIC90 concentration relative to MIC50 (fold higher): < 3 fold
[4]; Mycobacterium tuberculosis, H37RV, 120 h, 5 days, read-out: MIC50 (μM) against M. tuberculosis H37Rv
  MIC50: 2.5 µM
[4]; Mycobacterium tuberculosis, H37RV, 120 h, 5 days, read-out: MIC90 (μM) against M. tuberculosis H37Rv
  MIC90: 6 µM (≈ 2.6 µg/mL)
[4]; Mycobacterium tuberculosis, H37RV, read-out: MIC50-TB
  MIC50: 1.08 µg/mL
[5]
  fraction unbound: 0.0954
[6]
  MBC: 50 µM (≈ 21.7 µg/mL)
[7]
  GI50 relative to M. tuberculosis growth-inhibitory potency, Vero: 200 fold
[8]
  GI50: 500 µM
[9]
  MIC50: 1.5 µM (≈ 0.65 µg/mL)
[10]
  logD: 2.96
[11]; M. smegmatis ΔprcAB IC50 (μM) for ClpP1P2, whole-cell RFP-SsrA reporter, 3 h incubation
  IC50: 1.5 ± 0.5 µM
[11]; M. smegmatis ΔprcAB reporter
  improvement of ClpP1P2 potency compared to compound 1: 4 fold
[12]; 24 h exposure, OD600, concentration inhibiting 50% of growth
  M. smegmatis ΔprcAB MIC50: 2.7 ± 0.5 µM
[12]; M. smegmatis ΔprcAB
  improvement of bacterial-growth inhibition compared to compound 1: over 2 fold
[13]
  fraction unbound: 0.109
[14]
  IC50: 9.31 µM
[15]
  IC50: 4.4 µM
[16]
  IC50: > 10 µM
[17]; 10 mg/kg i.v.
  abnormal clinical signs for up to 24 h after injection: No abnormal clinical signs were observed
  acute side effects during tail vein injection: No acute side effects were observed
  time concentrations remained above anti-M. tuberculosis MIC50: approximately 4 h
[17]; 10 mg/kg i.v., plasma
  maximum concentration: 32.7 µM
[17]; 100 mg/kg p.o., brain
  AUC0–t(last) in brain: 286 ng·h/g
[17]; 100 mg/kg p.o., lung
  AUC0–t(last) in lung: 16,253 ng · h/g
[17]; female, ICR, mouse, iv, 10 mg/kg i.v., plasma, read-out: C0 (maximum concentration)
  C0: 14200 ng/mL
[17]; female, ICR, mouse, plasma, iv, 10 mg/kg i.v., read-out: AUC0-inf
  AUC(0-inf): 21100 ng·h/mL
[17]; female, ICR, mouse, plasma, iv, 10 mg/kg i.v., read-out: AUC0-t(last)
  AUC(0-t): 20800 ng·h/mL
[17]; female, ICR, mouse, plasma, iv, 10 mg/kg i.v., read-out: CL (systemic plasma clearance) (converted)
  clearance: 8.33 mL/min/kg
[17]; female, ICR, mouse, plasma, iv, 10 mg/kg i.v., read-out: T½ (elimination half-life) (converted)
  half-life: 222 min
[17]; female, ICR, mouse, plasma, iv, 10 mg/kg i.v., read-out: Vss
  Vd: 2.1 L/kg
[17]; female, ICR, mouse, plasma, iv, 10 mg/kg i.v., read-out: Vz
  Vd: 2.5 L/kg
[17]; female, ICR, mouse, plasma, lung, brain, po, 100 mg/kg p.o., read-out: Tmax (converted)
  Tmax: 10 min
[17]; female, ICR, mouse, plasma, oral, 10 mg/kg p.o. vs 10 mg/kg i.v., read-out: F (absolute oral bioavailability)
  bioavailability: 14%
[17]; female, ICR, mouse, plasma, po, 10 mg/kg p.o., read-out: AUC0-inf
  AUC(0-inf): 2870 ng·h/mL
[17]; female, ICR, mouse, plasma, po, 10 mg/kg p.o., read-out: AUC0-t(last)
  AUC(0-t): 2840 ng·h/mL
[17]; female, ICR, mouse, plasma, po, 10 mg/kg p.o., read-out: Tmax (converted)
  Tmax: 30 min
[17]; female, ICR, mouse, plasma, po, 10 mg/kg p.o., read-out: T½ (converted)
  half-life: 234 min
[17]; female, ICR, mouse, po, 10 mg/kg p.o., plasma, read-out: Cmax
  Cmax: 798 ng/mL
[17]; female, ICR, mouse, po, 100 mg/kg p.o., brain, Fig. 10B, read-out: AUC0-inf, Brain
  AUC(0-inf): 378 ng·h/mL
[17]; female, ICR, mouse, po, 100 mg/kg p.o., brain, Fig. 10B, read-out: AUC0-t(last), Brain
  AUC(0-t): 286 ng·h/mL
[17]; female, ICR, mouse, po, 100 mg/kg p.o., brain, read-out: Cmax in brain
  Cmax: 93 ng/g
[17]; female, ICR, mouse, po, 100 mg/kg p.o., brain, read-out: Tmax, Brain
  Tmax: 12 min
[17]; female, ICR, mouse, po, 100 mg/kg p.o., brain, read-out: T½, Brain (converted)
  half-life: 12 min
[17]; female, ICR, mouse, po, 100 mg/kg p.o., lung, Fig. 10B, read-out: AUC0-inf, Lung
  AUC(0-inf): 17000 ng·h/mL
[17]; female, ICR, mouse, po, 100 mg/kg p.o., lung, Fig. 10B, read-out: AUC0-t(last), Lung
  AUC(0-t): 16300 ng·h/mL
[17]; female, ICR, mouse, po, 100 mg/kg p.o., lung, read-out: Cmax in lung
  Cmax: 3370 ng/g
[17]; female, ICR, mouse, po, 100 mg/kg p.o., lung, read-out: Tmax, Lung
  Tmax: 12 min
[17]; female, ICR, mouse, po, 100 mg/kg p.o., lung, read-out: T½, Lung (converted)
  half-life: 18 min
[17]; female, ICR, mouse, po, 100 mg/kg p.o., plasma, read-out: AUC0-inf, Plasma
  AUC(0-inf): 23600 ng·h/mL
[17]; female, ICR, mouse, po, 100 mg/kg p.o., plasma, read-out: AUC0-t(last), Plasma
  AUC(0-t): 22800 ng·h/mL
[17]; female, ICR, mouse, po, 100 mg/kg p.o., plasma, read-out: Cmax, Plasma
  Cmax: 6910 ng/mL
[17]; female, ICR, mouse, po, 100 mg/kg p.o., plasma, read-out: Tmax, Plasma
  Tmax: 12 min
[17]; female, ICR, mouse, po, 100 mg/kg p.o., plasma, read-out: T½, Plasma (converted)
  half-life: 12 min
[17]; p.o., plasma Cmax and AUC0–inf at 10 and 100 mg/kg
  Dose linearity: very good
[18]; aqueous medium at pH 7.4, aqueous buffer, pH 7.4, text, read-out: aqueous solubility
  solubility: > 400 µg/mL
[18]; aqueous solution at pH 4, aqueous buffer, thermodynamic, pH 4, read-out: Aq solubility (μg/ml) at pH 4
  solubility: 422 µg/mL (≈ 973 µM)
[18]; aqueous solution at pH 7.4, aqueous buffer, thermodynamic, pH 7.4, read-out: Aq solubility (μg/ml) at pH 7.4
  solubility: 450 µg/mL (≈ 1040 µM)
[19]; 2/62
  share of panel of 62 proteases inhibited with a submicromolar IC50: 3%
[19]; 5/62
  share of panel of 62 proteases inhibited with an IC50 between 1 to 10 μM: 8%
[19]; top concentration tested 10 μM
  share of panel of 62 proteases against which active (<10 μM): 11%
[20]
  IC50: 0.367 ± 0.103 µM
[21]
  GI50: 500 µM
[22]
  GI50 relative to M. tuberculosis growth-inhibitory potency, HepG2: 200 fold
[23]
  IC50: 5.75 µM
[24]
  Papp: 3.5 ×10⁻⁶ cm/s

Source: article PMC5404560, “Towards Selective Mycobacterial ClpP1P2 Inhibitors with Reduced Activity against the Human Proteasome” (Antimicrobial Agents and Chemotherapy, 2017)
